Patent US20170058314A1, “NOVEL METHODOLOGY FOR IDENTIFYING ANTI-PERSISTER ACTIVITY AND ANTIMICROBIAL SUSCEPTIBILITY FOR BORRELIA BURGDORFERI AND OTHER BACTERIA” (priority 2014, published 2017)

Assays:
[1] = system: stationary phase B. burgdorferi persisters (strain B31); assay: epifluorescence microscope counting after SYBR Green I/PI staining, FDA drug screen; settings: Borreliella burgdorferi, 168 h, read-out: Residual viable cells (epifluorescence microscope counting)
[2] = system: stationary phase B. burgdorferi persisters (strain B31); assay: SYBR Green I/PI viability assay (plate reader), FDA-approved drug library screen; settings: for Ratio of Green/Red fluorescence, Primary screening / Ratio of Green/Red fluorescence, Rescreening (first column) / Ratio of Green/Red fluorescence, Rescreening (second column): 50 μM, 7 days, stationary phase; for viability at 50 µM: Borreliella burgdorferi, 168 h, read-out: Residual viable cells (regression equation, SYBR Green I/PI assay)
[3] = system: S. aureus strains (Newman, USA300, CA-409, CA-127, NY-315); assay: Rapid SYBR Green/PI antibiotic susceptibility test; assay type: cell-based, Staphylococcus aureus; settings: for cut-off (averaged proportion of killed cells) for resistant strains / cut-off (averaged proportion of killed cells) for susceptible strains: 100 μg/mL, 1.5 hours; for percent killed, resistant strain NY-315: kanamycin 25, erythromycin 400 μg/mL; for percent killed, sensitive Newman strain: kanamycin 25, erythromycin 400, ciprofloxacin 50, gentamicin 400 μg/mL
[4] = system: log phase and stationary phase B. burgdorferi culture; assay: Antibiotic exposure assay, SYBR Green I/PI (drugs alone and combinations); settings: for viability at 10 µg/mL: Borreliella burgdorferi, 168 h, read-out: Live Cell % (residual viable B. burgdorferi), ten-day-old stationary phase culture enriched with micro-colonies, 10 μg/mL each drug, 7 days
Experimental: To qualitatively determine the effect of antibiotics, 10 μL of each compound from the pre-diluted plate or pre-diluted stock was added to stationary phase B. burgdorferi culture in the 96-well plate. The final volume per well was adjusted to 100 μL at a concentration of 10 μg/mL for each antibiotic. Plates were sealed and placed in a 33° C. incubator for 7 days. The SYBR Green I/PI viability assay was used to assess the live and dead cells after antibiotic exposure as described (Feng, Wang, Shi, et al., 2014). Briefly, 10 μL of SYBR Green I (10,000×stock, Invitrogen) was mixed with 30 μL propidium iodide (PI, 20 mM) into 1.0 mL of sterile dH2O. Then, 10 μL of staining mixture was added to each well and mixed thoroughly. The plates were incubated at room temperature in the dark for 15 minutes followed by plate reading at excitation wavelength at 485 nm and the fluorescence intensity at 535 nm (green emission) and 635 nm (red emission) in microplate reader (HTS 7000 plus Bio Assay Reader, PerkinElmer Inc., USA). With least-square fitting analysis, the regression equation and regression curve of the relationship between percentage of live bacteria and green/red fluorescence ratios was obtained. The regression equation was used to calculate the percentage of live cells in each well of the 96-well plate.
To qualitatively determine the effect of antibiotics, 10 μL of each compound (final concentration 50 μM) from the pre-diluted plate or pre-diluted stock was added to round body form or stationary phase B. burgdorferi culture in the 96-well plate. The final volume per well was adjusted to 100 μL. Plates were sealed and placed in a 33° C. incubator for 7 days. The SYBR Green I/PI viability assay was used to assess the live and dead cells after antibiotic exposure as described (Feng, Wang, Shi, et al., 2014). Briefly, 10 μL of SYBR Green I (10,000×stock, Invitrogen) was mixed with 30 μL propidium iodide (PI, 20 mM, Sigma-Aldrich) into 1.0 mL of sterile dH2O. Then, 10 μL staining mixture was added to each well and mixed thoroughly. The plates were incubated at room temperature in the dark for 15 minutes followed by plate reading at excitation wavelength at 485 nm and the fluorescence intensity at 535 nm (green emission) and 635 nm (red emission) in microplate reader (HTS 7000 plus Bio Assay Reader, PerkinElmer Inc., USA). With least-square fitting analysis, the regression equation and regression curve of the relationship between percentage of live and dead bacteria as shown in green/red fluorescence ratios was obtained. The regression equation was used to calculate the percentage of live cells in each well of the 96-well plate.
Round body form and ten day old stationary phase (in brackets) B. burgdorferi culture was treated with 10 μg/mL drugs or their combinations for 7 days. Residual viable B. burgdorferi was calculated according to the regression equation and ratio of Green/Red fluorescence obtained by SYBR Green I/PI assay as described (Feng, Wang, Shi, et al., 2014). Direct microscopy counting was employed to rectify the results of the SYBR Green I/PI assay. […] Abbreviation: Dox, doxcycline; CefP, cefoperazone; DAP, daptomycin; CefM, cefmetazole; Scp, sulfachlorpyridazine; Art, artemisinin; Nft, nitrofurantoin.

[5] = system: B. burgdorferi (growing, strain B31); assay: MIC determination, standard microdilution method; assay type: cell-based, Borrelia burgdorferi; settings: MIC test
[6] = system: round body form of B. burgdorferi; assay: SYBR Green I/PI assay on amoxicillin-induced round body form; settings: for viability at 50 µM: Borreliella burgdorferi, 168 h, read-out: Residual viable cells (SYBR Green I/PI assay); for Ratios of green/red fluorescence, Primary screening / Ratios of green/red fluorescence, Rescreening (first column) / Ratios of green/red fluorescence, Rescreening (second column): round body form, 50 μM
[7] = 10 μg/mL drugs or combinations, 7 days

Row | Structure (SMILES) | viability at 50 µM [1] [%] | Ratio of Green/Red fluorescence, Primary screening [2] | Ratio of Green/Red fluorescence, Rescreening (first column) [2] | Ratio of Green/Red fluorescence, Rescreening (second column) [2] | viability at 50 µM [2] [%] | viability at 10 µg/mL [4] [%] | also measured
1 | CC1(C)S[C@@H]2[C@H](NC(=O)C3(N)CCCCC3)C(=O)N2[C@H]1C(=O)O [Cyclacillin] | 51 | 6.81 | 6.88 | 7.64 | 53 | – | –
2 | Nc1nc(/C(=C/CC(=O)O)C(=O)N[C@@H]2C(=O)N3C(C(=O)O)=CCS[C@H]23)cs1 [Ceftibuten] | 51 | 6.81 | 6.78 | 7.27 | 49 | – | –
3 | NC[C@H]1O[C@H](O[C@H]2[C@H](O)[C@@H](O[C@H]3O[C@H](CO)[C@@H](O)[C@H](N)[C@H]3O)[C@H](N)C[C@@H]2N)[C@H](O)[C@@H](O)[C@@H]1O [kanamycin] | – | – | – | – | – | – | cut-off (averaged proportion of killed cells) for resistant strains [3]: −0.01; cut-off (averaged proportion of killed cells) for susceptible strains [3]: −0.2; percent killed, resistant strain CA-127 ([3]; 30 minutes, kanamycin 25, ciprofloxacin 50 μg/mL): 5%; percent killed, resistant strain CA-409 ([3]; 30 minutes, kanamycin 25, ciprofloxacin 50, gentamicin 400 μg/mL): 5%; percent killed, resistant strain NY-315 ([3]; 30 minutes): 5%; percent killed, sensitive Newman strain ([3]; 30 minutes): 27%
4 | CCN(CCO)CCCC(C)Nc1ccnc2cc(Cl)ccc12 (stereo not shown) [Hcq, hydroxychloroquine] | – | – | – | – | – | 71 | –
5 | CN(C)CCn1nnnc1SCC1=C(C(=O)O)N2C(=O)[C@@H](NC(=O)Cc3csc(N)n3)[C@H]2SC1 [Cefotiam] | 42 | 6.41 | 7.55 | 6.21 | 43 | – | sensitivity of log phase / multiplying B. burgdorferi (words, FIG. 12) [5]: very sensitive
6 | CC[C@H]1OC(=O)[C@H](C)[C@@H](O[C@H]2C[C@@](C)(OC)[C@@H](O)[C@H](C)O2)[C@H](C)[C@@H](O[C@@H]2O[C@H](C)C[C@H](N(C)C)[C@H]2O)[C@](C)(O)C[C@@H](C)CN(C)[C@H](C)[C@@H](O)[C@]1(C)O [Azithromycin] | 77 | 8.33 | 8.10 | 7.92 | 80 | – | viability at 50 µM [6]: 47%; Ratios of green/red fluorescence, Primary screening ([6]; 7 days): 6.79; Ratios of green/red fluorescence, Rescreening (first column) ([6]; 7 days): 6.52; Ratios of green/red fluorescence, Rescreening (second column) ([6]; 7 days): 6.42
7 | CC1COc2c(N3CCN(C)CC3)c(F)cc3c(=O)c(C(=O)O)cn1c23 (stereo not shown) [Ofl, ofloxacin] | – | – | – | – | – | 81 | –
8 | CO[C@@]1(NC(=O)CSCC#N)C(=O)N2C(C(=O)O)=C(CSc3nnnn3C)CS[C@@H]21 [Cefmetazole] | – | 6.80 | 7.38 | 6.00 | 43 | – | Live cell %, ten day old stationary phase culture (in brackets) [4, 7]: 53%; Live cell %, round body form [6, 7]: 34%; viability at 50 µM [6]: 33%; Ratios of green/red fluorescence, Primary screening ([6]; 7 days): 6.13; Ratios of green/red fluorescence, Rescreening (first column) ([6]; 7 days): 6.25; Ratios of green/red fluorescence, Rescreening (second column) ([6]; 7 days): 6.46
9 | Clc1ccc(COC(Cn2ccnc2)c2ccc(Cl)cc2Cl)c(Cl)c1 (stereo not shown) [Mcz, miconazole] | – | – | – | – | – | 65 | sensitivity of log phase / multiplying B. burgdorferi (words, FIG. 12) [5]: less potent
10 | CC[C@H]1OC(=O)[C@H](C)[C@@H](O[C@H]2C[C@@](C)(OC)[C@@H](O)[C@H](C)O2)[C@H](C)[C@@H](O[C@@H]2O[C@H](C)C[C@H](N(C)C)[C@H]2O)[C@](C)(O)C[C@@H](C)C(=O)[C@H](C)[C@@H](O)[C@]1(C)O [erythromycin] | – | – | – | – | – | – | cut-off (averaged proportion of killed cells) for resistant strains [3]: −0.1; cut-off (averaged proportion of killed cells) for susceptible strains [3]: −0.4; percent killed, resistant strain NY-315 ([3]; 30 minutes): 17%; percent killed, sensitive Newman strain ([3]; 30 minutes): 50%
